The record followed here is ChEMBL document CHEMBL4359816, “Discovery and Optimization of Quinolinone Derivatives as Potent, Selective, and Orally Bioavailable Mutant Isocitrate Dehydrogenase 1 (mIDH1) Inhibitors” (J Med Chem, 2019).

In brackets after ≈: the same amount, converted by molar mass.

Data set [1] can be described thus: Metabolic stability in human liver microsomes assessed as compound remaining after 30 mins. The following applies: read-out: Stability. It is filed as ADME, Microsome. Background: Microsomes from liver hold many membrane-bound enzymes, among them those of drug oxidation.
A short description of data set [2]: Kinetic solubility of the compound. The following applies: read-out: Kinetic_solubility. In kind it is physicochemical.
Data set [3] has as its target T1, Isocitrate dehydrogenase [NADP] cytoplasmic (Homo sapiens, UniProt O75874, R132C). As to the kind of experiment: Inhibition of human Myc-DDK-tagged IDH1 R132C mutant assessed as reduction in NADPH consumption pre-incubated for 15 mins followed by alpha-ketoglutarate substrate and NADPH addition after 45 mins by diaphorase and resazurin dye based assay.
Data set [4] can be described thus: Metabolic stability in mouse liver microsomes assessed as compound remaining after 30 mins. The following applies: read-out: Stability. It is filed as ADME, Microsome.
Data set [5] addresses T1, Isocitrate dehydrogenase [NADP] cytoplasmic. As to the kind of experiment: Inhibition of IDH1 R132C mutant in human HCT116 cells assessed as reduction in 2-HG levels after 24 hrs by RapidFire high-throughput mass spectrometry assay. In kind it is cell-based.
Data set [6] in a line: Metabolic stability in rat liver microsomes assessed as compound remaining after 30 mins. Particulars: read-out: Stability. In kind it is ADME, Microsome.
Data set [7] concerns the target Isocitrate dehydrogenase [NADP] cytoplasmic (Homo sapiens, UniProt O75874). Nature of the data set: Inhibition of wild-type IDH1 (unknown origin) by NADPH fluorescence based assay.
Data set [8] is described as follows: Half-life in BALB/c mouse at 5 mg/kg, po measured up to 24 hrs. Particulars: in vivo. In kind it is ADME, organism-based.
For data set [9], the target named is T1, Isocitrate dehydrogenase [NADP] cytoplasmic. Nature of the data set: Inhibition of human Myc-DDK-tagged IDH1 R132C mutant expressed in human U87MG cells assessed as reduction in 2-HG levels after 24 hrs by RapidFire high-throughput mass spectrometry assay. It is filed as cell-based.
Data set [10] can be described thus: AUC (0 to 8 hrs) in BALB/c mouse at 5 mg/kg, po measured up to 24 hrs. It is filed as ADME, organism-based. Also noted: dose 5 mg/kg, time < 8 hr, route oral. Particulars: in vivo.
Data set [11] can be described thus: Total Cmax in BALB/c mouse at 5 mg/kg, po after 1 hr. It is filed as ADME, organism-based. Particulars: in vivo. More on the design: dose 5 mg/kg, route oral.
Data set [12] can be described thus: Octanol/aqueous buffer partition coefficient, log D of the compound at pH 7.4. It is filed as physicochemical.

T1 sequence (O75874 2-414 R132C limits assumed): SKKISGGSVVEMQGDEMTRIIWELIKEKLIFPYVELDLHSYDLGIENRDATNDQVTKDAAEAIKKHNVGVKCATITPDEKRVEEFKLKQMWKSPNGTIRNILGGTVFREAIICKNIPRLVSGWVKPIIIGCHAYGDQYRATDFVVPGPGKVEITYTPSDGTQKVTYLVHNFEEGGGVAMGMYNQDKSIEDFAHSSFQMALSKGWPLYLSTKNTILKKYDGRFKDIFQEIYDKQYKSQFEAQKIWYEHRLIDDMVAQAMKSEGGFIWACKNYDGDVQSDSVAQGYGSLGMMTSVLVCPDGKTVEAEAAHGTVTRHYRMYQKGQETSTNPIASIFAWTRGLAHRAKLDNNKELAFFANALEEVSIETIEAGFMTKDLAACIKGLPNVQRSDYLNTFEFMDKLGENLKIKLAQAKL
Sequence of Isocitrate dehydrogenase [NADP] cytoplasmic (Homo sapiens, UniProt O75874) (O75874 whole entry): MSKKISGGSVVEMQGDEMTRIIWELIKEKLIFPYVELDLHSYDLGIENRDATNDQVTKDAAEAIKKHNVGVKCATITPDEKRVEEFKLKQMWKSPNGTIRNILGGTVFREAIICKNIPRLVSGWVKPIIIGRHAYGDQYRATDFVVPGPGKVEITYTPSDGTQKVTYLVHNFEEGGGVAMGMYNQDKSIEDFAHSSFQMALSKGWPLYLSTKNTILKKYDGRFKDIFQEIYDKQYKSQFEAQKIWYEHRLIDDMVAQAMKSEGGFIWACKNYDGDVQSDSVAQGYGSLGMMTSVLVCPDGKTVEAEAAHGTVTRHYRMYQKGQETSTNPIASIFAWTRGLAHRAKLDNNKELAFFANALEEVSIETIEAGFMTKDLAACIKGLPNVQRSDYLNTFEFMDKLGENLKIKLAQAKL

For `COc1cc(NCc2cc3cc(Cl)c(OCc4ccccn4)cc3[nH]c2=O)ccc1C#N`, the remaining at 0.5 h in data set [1] worked out at 30%; in data set [4], 73.4%. Further, in data set [2], the solubility kinetic was < 0.1 µM. Further, the concentration for half-maximal inhibition (IC50) in data set [3] is 225 nM.
For `COc1cc(NCc2cc3cc(Cl)cc(OCCN4CCOCC4)c3[nH]c2=O)ccc1C#N`, in that order: 0%, 2.4%, < 0.1 µM and 3710 nM.
For the molecule `COc1cc(NCc2cc3cc(Cl)c(OC[C@@H]4CCCN4C)cc3[nH]c2=O)ccc1C#N`, the remaining at 0.5 h in [1] came out at 6.3%; in data set [4], 48.8%. In data set [2], the solubility kinetic was 0.72 µM (≈ 0.326 µg/mL). Also, the IC50 in data set [3] was 5870 nM.
Take `COc1cc(NCc2cc3cc(Cl)c(OCC4CCCCN4C)cc3[nH]c2=O)ccc1C#N` (centres undefined): the values for the remaining at 0.5 h in data set [1] and in data set [4] were 0% and 10.7%, respectively. Moreover, in data set [2], the solubility kinetic came to 1.35 µM (≈ 0.63 µg/mL). In [3], the IC50 was 1280 nM.
On to `COc1nc(N[C@@H](C)c2cc3cc(Cl)c(C4CC4)cc3[nH]c2=O)ncc1C#N`, for which the remaining at 0.5 h in data set [1] amounted to 93%; in [6] it was 68%. Besides, the figures for the IC50 in data set [5] and in [3] were 195 nM and 305 nM, respectively. In addition, the solubility kinetic in data set [2] worked out at 0.4 µM (≈ 0.158 µg/mL).
With `COc1cc(NCc2cc3cc(Cl)c(OCCN4CCCC4=O)cc3[nH]c2=O)ccc1C#N`, the remaining at 0.5 h was determined as 2.5% in data set [1] and 14.3% in [4]. Further, the solubility kinetic in [2] came out at 0.53 µM (≈ 0.247 µg/mL). Further, the IC50 in data set [3] was 2670 nM.
In the case of `COc1nc(N[C@@H](C)c2cc3cc(Cl)c(OC(C)C)cc3[nH]c2=O)ncc1C#N`, the remaining at 0.5 h in data set [1] was 100%; in data set [6] it was 90%. Further, the IC50 in data set [5] stood at 104 nM; in [3], 26 nM. Further, in [2], the solubility kinetic was 0.43 µM (≈ 0.178 µg/mL).
As to `COc1cc2[nH]c(=O)c(CNc3ccc(C#N)c(OC)c3)cc2cc1Cl`, the results for the remaining at 0.5 h in data set [1] and in [4] were 1% and 94.9%, respectively. Moreover, the solubility kinetic in data set [2] is < 0.1 µM. In addition, the IC50 in data set [3] amounted to 667 nM.
As to `Cc1nc(NCc2cc3cc(Cl)ccc3[nH]c2=O)ccc1C#N`, the IC50 in [7] is 75000 nM; in data set [5], 3210 nM; in data set [3], 820 nM; in data set [9] it was 258 nM. Further, the remaining at 0.5 h in data set [1] came out at 84%; in data set [4], 69%. The solubility kinetic in data set [2] is 0.64 µM (≈ 0.208 µg/mL). For the same molecule, in [8], the half-life is 3.57 h. The same molecule registered an AUC(0-t) at 8 h in data set [10] of 2.66 µM·h. Further, the maximum concentration (Cmax) in data set [11] was 480 nM.
For `COc1cc(NCc2cc3cc(Cl)c(OCCN4CCOCC4)cc3[nH]c2=O)ccc1C#N`, the results for the remaining at 0.5 h in data set [1] and in [4] were 1.1% and 13.1%, respectively. Further, the solubility kinetic in [2] was determined as 0.385 µM (≈ 0.181 µg/mL). The IC50 in data set [3] was 932 nM.
The molecule `COc1cc(N[C@@H](C)c2cc3cc(Cl)ccc3[nH]c2=O)ccc1C#N` showed a logD in [12] of 3.67. For the same molecule, the remaining at 0.5 h in data set [1] was found to be 75%; in data set [4], 71%. The values for the IC50 in data set [5] and in [3] were 213 nM and 111 nM, respectively. The solubility kinetic in data set [2] was determined as 4.1 µM (≈ 1.45 µg/mL).

By IC50 is commonly meant the concentration that gives 50% inhibition. As usually defined, the half-life is how long it takes for the measured level to halve. Low values mean rapid decline, high ones slow decline. Broadly, the AUC(0-t) is the area under the concentration-time curve up to a stated or last time point. Broadly, the Cmax is the peak of the concentration-time curve. The term logD denotes lipophilicity at a set pH, counting ionised and neutral species. The low end stands for lower lipophilicity, the high end for higher lipophilicity.
